How the values were obtained:
[1] = target: T1, A2AAR (Homo sapiens, UniProt P29274); assay: A2AAR affinity (Ki), method not described; type: binding; details: unpublished results of the authors; read-out: KiA2AAR
[2] = target: T2, A1AR (Homo sapiens, UniProt P30542); assay: A1AR affinity (Ki), method not described; type: binding; details: unpublished results of the authors; read-out: KiA1AR
T2 sequence (P30542 1-326): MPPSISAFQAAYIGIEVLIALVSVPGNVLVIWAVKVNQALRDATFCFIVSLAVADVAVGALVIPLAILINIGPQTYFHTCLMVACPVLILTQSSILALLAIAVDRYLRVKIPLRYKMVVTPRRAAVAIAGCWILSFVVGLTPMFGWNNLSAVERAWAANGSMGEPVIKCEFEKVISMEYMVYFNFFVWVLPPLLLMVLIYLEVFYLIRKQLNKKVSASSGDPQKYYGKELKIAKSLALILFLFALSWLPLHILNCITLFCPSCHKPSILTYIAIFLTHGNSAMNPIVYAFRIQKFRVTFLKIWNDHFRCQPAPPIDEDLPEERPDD

[3] = target: T3, A3AR (Homo sapiens, UniProt P0DMS8); assay: A3AR affinity (Ki), method not described; type: binding; details: unpublished results of the authors; read-out: KiA3AR
T3 sequence (P0DMS8 1-318): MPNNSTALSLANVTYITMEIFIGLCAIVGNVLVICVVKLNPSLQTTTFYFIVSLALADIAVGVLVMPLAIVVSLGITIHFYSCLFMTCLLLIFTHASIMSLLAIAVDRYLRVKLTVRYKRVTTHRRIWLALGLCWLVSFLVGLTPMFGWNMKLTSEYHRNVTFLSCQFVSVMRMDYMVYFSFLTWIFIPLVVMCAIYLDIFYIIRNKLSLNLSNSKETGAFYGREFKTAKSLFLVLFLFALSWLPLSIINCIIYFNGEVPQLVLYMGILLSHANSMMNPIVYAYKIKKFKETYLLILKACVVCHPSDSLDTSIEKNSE

[4] = target: T1, A2AAR; assay: A2AAR functional antagonism (IC50), method not described; type: biochemical; details: unpublished results of the authors; read-out: IC50A2AAR
[5] = system: neuronal cells; assay: Cell viability in primary neuronal cells with or without CK and AR antagonists; type: cell-based, rat; details: for protection of neurons against neuroinflammatory insult (cell viability): 30 min, with CK
Protocol: Neurons were obtained from hippocampus or cortex of embryos. Briefly, pregnant rat was scarified and the uterus removed. Embryos were taken out from the uterus and brains were obtained. After removing the meninges, hippocampus and cortex were dissected and homogenated with tweezers. The result was incubated with trypsin for 15 min at 37 °C and then centrifuged 2 min at 1000 rpm. The pellet was resuspended with 15 mL of HBSS/0.37% Glucose/30% FBS and centrifuged as before for three times. Finally, the pellet was resuspended with 15 mL of neurobasal media supplemented with 25 µM of glutamine. The result was filtered and plated. Cells were plated in 24 well plates at 10^5 cells/well [26].
1.7 × 10^4 mixed glial cells were cultured in 98 μL of the specific medium in a 96 well plate overnight. The next day 2 μL of ligand or CK cocktail were added to the well. After all treatments, 20 µL of CellTiter 96® AQueous One Solution Reagent was added in a final volume of 100 µL. Absorbance was read at 490 nm using the plate reader GENiosPro. Cell viability was calculated as percentage using the following formula: Cell viability =OD mean of treated cells/OD mean of control cells × 100

[6] = system: mixed glial cells; assay: Trypan blue exclusion test in mixed glial cells; type: cell-based, rat; details: 30 min
Protocol: 6 × 10^5 mixed glial cells were seeded in a six well plate and after 24 h incubated with C2 10 nM alone or in presence of CK cocktail. After 30 min at 37 °C cells were detached with Trypsin-EDTA solution and 10 µL of cells were added to 40 μL of 0.4% trypan blue solution. Cells were counted with a Neubauer chamber and the number of live cells was calculated.

[7] = target: human A1AR; set-up: method as in PMID 30614535; details: CHO cells stably transfected with human ARs; read-out: KiA1AR; cited from earlier work
[8] = target: human A2AAR; set-up: method as in PMID 30614535; details: CHO cells stably transfected with human ARs; read-out: KiA2AAR; cited from earlier work
[9] = target: human A3AR; set-up: method as in PMID 30614535; details: CHO cells stably transfected with human ARs; read-out: KiA3AR; cited from earlier work
[10] = system: hA1AR; set-up: method as in PMID 30614535; details: inhibition of adenyl cyclase activity induced by forskolin, cited from earlier work
[11] = system: mouse ileum contractility; set-up: method as in PMID 30614535; details: ex vivo mouse ileum; cited from earlier work
[12] = system: SH-SY5Y cells; set-up: method as in PMID 30614535; details: different concentrations; cited from earlier work

T1 sequence (P29274 whole entry): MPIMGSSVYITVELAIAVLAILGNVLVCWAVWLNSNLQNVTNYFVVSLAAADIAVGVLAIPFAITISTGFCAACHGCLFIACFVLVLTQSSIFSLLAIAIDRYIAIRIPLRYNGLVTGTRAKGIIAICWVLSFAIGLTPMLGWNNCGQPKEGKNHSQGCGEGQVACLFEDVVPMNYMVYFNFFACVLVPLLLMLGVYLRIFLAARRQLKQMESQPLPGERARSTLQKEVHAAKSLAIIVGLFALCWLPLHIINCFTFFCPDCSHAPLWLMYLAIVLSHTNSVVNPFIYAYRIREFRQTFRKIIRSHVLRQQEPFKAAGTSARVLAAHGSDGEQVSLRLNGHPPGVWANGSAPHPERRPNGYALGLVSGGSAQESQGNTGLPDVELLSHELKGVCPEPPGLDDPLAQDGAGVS

| Ki [1] | Ki [2] | Ki [3] | IC50 [4] | SMILES | protection of neurons against neuroinflammatory insult (cell viability) ([5]; C1 5.5 µM, C2 10 nM) | cell viability, combination with A2AAR antagonist SCH58261 ([5]; neurons, C2 10 nM, SCH58261 50 nM) | live cells vs. control (trypan blue) ([6]; 10 nM alone) | number of cells vs. control (trypan blue) ([6]; 10 nM, after aggression with CK cocktail) | cell viability, effect against A1AR antagonist DPCPX ([5]; neurons, C1 5.5 µM, DPCPX 100 nM, in presence of CK) | Ki [7] | Ki [8] | Ki [9] | α (intrinsic activity, partial agonist) [10] | EC50 ([10]; read-out: EC50A1AR) | maximal reduction of contractility relative to full agonist CCPA [11] | protection from oxygen-glucose deprivation (OGD) [12] |
| --- | --- | --- | --- | --- | --- | --- | --- | --- | --- | --- | --- | --- | --- | --- | --- | --- |
| 0.75 nM | 17 nM | 227 nM | 251 nM | CCn1c(Cl)nc2c(N)nc(OCCc3ccccc3)nc21 [Compound C2, 8-chloro-9-ethyl-2-phenethoxyadenine] | beneficial effects in protecting neurons | did not exhibited a synergic effect | 123 ± 4.5 | 129 ± 3.5 | – | – | – | – | – | – | – | – |
| – | – | – | – | OC[C@H]1O[C@@H](n2cnc3c(NC4CCCC4)nc(Cl)nc32)C[C@@H]1O [Compound C1, 2-chloro-N^6-cyclopentyl-2′-deoxyadenosine] | beneficial effects in protecting neurons | – | – | – | partially counteract the effect of DPCPX | 550 nM | 24800 nM | 5560 nM | 0.70 | 832 nM | 75% | protect SH-SY5Y cells from oxygen-glucose deprivation (OGD) |

Reference: paper PMC7409197, “Adenosine Receptors as Neuroinflammation Modulators: Role of A1 Agonists and A2A Antagonists” (Cells, 2020)
